Tested on: kochia (Kochia scoparia)
Assay: Test A preemergence, kochia
Type: in vivo
Conditions: 125 g ai/ha, 0 to 100 scale
Procedure, shortened: (§1)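 Visual injury ratings, 0 = no effect to 100 = complete control, made versus untreated controls after about 10 d in greenhouse. Chemicals formulated in solvent mixture containing surfactant were sprayed on loam-sand soil after seeding (preemergence) or onto plants at one- to two-leaf stage, 2-10 cm (postemergence).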

| Compound | Plant response rating, Kochia |
| --- | --- |
| O=C1NCC(CCc2ccccc2)C1C(=O)Nc1ccccc1F (stereo not drawn) [Compound 20] | 0 |

Same assay, conditions: 500 g ai/ha, 0 to 100 scale

| Compound | Plant response rating, Kochia |
| --- | --- |
| O=C1NCC(CCc2ccccc2)C1C(=O)Nc1ccccc1F (stereo not drawn) [Compound 20] | 0 |

Tested on: barnyardgrass (Echinochloa crus-galli)
Assay: Test B flooded paddy test, barnyardgrass
Type: in vivo
Conditions: Flood, 250 g ai/ha; scale of 0 to 100 where 0 is no effect and 100 is complete control; 13 to 15 d
Procedure, shortened: (§2)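 Ratings use a 0-100 visual scale, where 100 is complete control, and compare treated plants with controls after 13 to 15 d of greenhouse growth. Compound went straight into paddy water kept 3 cm over the soil surface, applied to seedlings at the 2-leaf stage.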

| Compound | Plant response rating, Barnyardgrass |
| --- | --- |
| O=C1NCC(CCc2ccccc2)C1C(=O)Nc1ccccc1F (stereo not drawn) [Compound 20] | 0 |

Tested on: ragweed (common ragweed, Ambrosia elatior)
Assay: Test A preemergence, ragweed
Type: in vivo
Conditions: 125 g ai/ha, 0 to 100 scale
Procedure, shortened: as §1

| Compound | Plant response rating, Ragweed |
| --- | --- |
| O=C1NCC(CCc2ccccc2)C1C(=O)Nc1ccccc1F (stereo not drawn) [Compound 20] | 0 |

Same assay, conditions: 500 g ai/ha, 0 to 100 scale

| Compound | Plant response rating, Ragweed |
| --- | --- |
| O=C1NCC(CCc2ccccc2)C1C(=O)Nc1ccccc1F (stereo not drawn) [Compound 20] | 0 |

Tested on: ryegrass, It. (Italian ryegrass, Lolium multiflorum)
Assay: Test A preemergence, ryegrass, It.
Type: in vivo
Conditions: 125 g ai/ha, 0 to 100 scale
Procedure, shortened: as §1

| Compound | Plant response rating, Ryegrass, It. |
| --- | --- |
| O=C1NCC(CCc2ccccc2)C1C(=O)Nc1ccccc1F (stereo not drawn) [Compound 20] | 0 |

Same assay, conditions: 500 g ai/ha, 0 to 100 scale

| Compound | Plant response rating, Ryegrass, It. |
| --- | --- |
| O=C1NCC(CCc2ccccc2)C1C(=O)Nc1ccccc1F (stereo not drawn) [Compound 20] | 0 |

Tested on: ragweed (common ragweed, Ambrosia elatior)
Assay: Test A postemergence, ragweed
Type: in vivo
Conditions: 125 g ai/ha, 0 to 100 scale
Procedure, shortened: as §1

| Compound | Plant response rating, Ragweed |
| --- | --- |
| O=C1NCC(CCc2ccccc2)C1C(=O)Nc1ccccc1F (stereo not drawn) [Compound 20] | 0 |

Same assay, conditions: 500 g ai/ha, 0 to 100 scale

| Compound | Plant response rating, Ragweed |
| --- | --- |
| O=C1NCC(CCc2ccccc2)C1C(=O)Nc1ccccc1F (stereo not drawn) [Compound 20] | 0 |

Tested on: ryegrass, It. (Italian ryegrass, Lolium multiflorum)
Assay: Test A postemergence, ryegrass, It.
Type: in vivo
Conditions: 125 g ai/ha, 0 to 100 scale
Procedure, shortened: as §1

| Compound | Plant response rating, Ryegrass, It. |
| --- | --- |
| O=C1NCC(CCc2ccccc2)C1C(=O)Nc1ccccc1F (stereo not drawn) [Compound 20] | 0 |

Same assay, conditions: 500 g ai/ha, 0 to 100 scale

| Compound | Plant response rating, Ryegrass, It. |
| --- | --- |
| O=C1NCC(CCc2ccccc2)C1C(=O)Nc1ccccc1F (stereo not drawn) [Compound 20] | 0 |

Tested on: blackgrass (Alopecurus myosuroides)
Assay: Test A postemergence, blackgrass
Type: in vivo
Conditions: 125 g ai/ha, 0 to 100 scale
Procedure, shortened: as §1

| Compound | Plant response rating, Blackgrass |
| --- | --- |
| O=C1NCC(CCc2ccccc2)C1C(=O)Nc1ccccc1F (stereo not drawn) [Compound 20] | 0 |

Same assay, conditions: 500 g ai/ha, 0 to 100 scale

| Compound | Plant response rating, Blackgrass |
| --- | --- |
| O=C1NCC(CCc2ccccc2)C1C(=O)Nc1ccccc1F (stereo not drawn) [Compound 20] | 0 |

Tested on: foxtail, giant (giant foxtail, Setaria faberii)
Assay: Test A preemergence, foxtail, giant
Type: in vivo
Conditions: 125 g ai/ha, 0 to 100 scale
Procedure, shortened: as §1

| Compound | Plant response rating, Foxtail, Giant |
| --- | --- |
| O=C1NCC(CCc2ccccc2)C1C(=O)Nc1ccccc1F (stereo not drawn) [Compound 20] | 0 |

Same assay, conditions: 500 g ai/ha, 0 to 100 scale

| Compound | Plant response rating, Foxtail, Giant |
| --- | --- |
| O=C1NCC(CCc2ccccc2)C1C(=O)Nc1ccccc1F (stereo not drawn) [Compound 20] | 0 |

Tested on: kochia (Kochia scoparia)
Assay: Test A postemergence, kochia
Type: in vivo
Conditions: 125 g ai/ha, 0 to 100 scale
Procedure, shortened: as §1

| Compound | Plant response rating, Kochia |
| --- | --- |
| O=C1NCC(CCc2ccccc2)C1C(=O)Nc1ccccc1F (stereo not drawn) [Compound 20] | 0 |

Same assay, conditions: 500 g ai/ha, 0 to 100 scale

| Compound | Plant response rating, Kochia |
| --- | --- |
| O=C1NCC(CCc2ccccc2)C1C(=O)Nc1ccccc1F (stereo not drawn) [Compound 20] | 0 |

Tested on: ducksalad (Heteranthera limosa)
Assay: Test B flooded paddy test, ducksalad
Type: in vivo
Conditions: Flood, 250 g ai/ha; scale of 0 to 100 where 0 is no effect and 100 is complete control; 13 to 15 d
Procedure, shortened: as §2

| Compound | Plant response rating, Ducksalad |
| --- | --- |
| O=C1NCC(CCc2ccccc2)C1C(=O)Nc1ccccc1F (stereo not drawn) [Compound 20] | 50 |

Tested on: sedge, umbrella (small-flower umbrella sedge, Cyperus difformis)
Assay: Test B flooded paddy test, sedge, umbrella
Type: in vivo
Conditions: Flood, 250 g ai/ha; scale of 0 to 100 where 0 is no effect and 100 is complete control; 13 to 15 d
Procedure, shortened: as §2

| Compound | Plant response rating, Sedge, Umbrella |
| --- | --- |
| O=C1NCC(CCc2ccccc2)C1C(=O)Nc1ccccc1F (stereo not drawn) [Compound 20] | 0 |

Tested on: corn (Zea mays)
Assay: Test A postemergence, corn
Type: in vivo
Conditions: 125 g ai/ha, 0 to 100 scale
Procedure, shortened: as §1

| Compound | Plant response rating, Corn |
| --- | --- |
| O=C1NCC(CCc2ccccc2)C1C(=O)Nc1ccccc1F (stereo not drawn) [Compound 20] | 0 |

Same assay, conditions: 500 g ai/ha, 0 to 100 scale

| Compound | Plant response rating, Corn |
| --- | --- |
| O=C1NCC(CCc2ccccc2)C1C(=O)Nc1ccccc1F (stereo not drawn) [Compound 20] | 0 |

Tested on: pigweed (Amaranthus retroflexus)
Assay: Test A postemergence, pigweed
Type: in vivo
Conditions: 125 g ai/ha, 0 to 100 scale
Procedure, shortened: as §1

| Compound | Plant response rating, Pigweed |
| --- | --- |
| O=C1NCC(CCc2ccccc2)C1C(=O)Nc1ccccc1F (stereo not drawn) [Compound 20] | 0 |

Same assay, conditions: 500 g ai/ha, 0 to 100 scale

| Compound | Plant response rating, Pigweed |
| --- | --- |
| O=C1NCC(CCc2ccccc2)C1C(=O)Nc1ccccc1F (stereo not drawn) [Compound 20] | 0 |

Tested on: rice (Oryza sativa)
Assay: Test B flooded paddy test, rice
Type: in vivo
Conditions: Flood, 250 g ai/ha; scale of 0 to 100 where 0 is no effect and 100 is complete control; 13 to 15 d
Procedure, shortened: as §2

| Compound | Plant response rating, Rice |
| --- | --- |
| O=C1NCC(CCc2ccccc2)C1C(=O)Nc1ccccc1F (stereo not drawn) [Compound 20] | 0 |

Tested on: galium (catchweed bedstraw, Galium aparine)
Assay: Test A postemergence, galium
Type: in vivo
Conditions: 125 g ai/ha, 0 to 100 scale
Procedure, shortened: as §1

| Compound | Plant response rating, Galium |
| --- | --- |
| O=C1NCC(CCc2ccccc2)C1C(=O)Nc1ccccc1F (stereo not drawn) [Compound 20] | 0 |

Same assay, conditions: 500 g ai/ha, 0 to 100 scale

| Compound | Plant response rating, Galium |
| --- | --- |
| O=C1NCC(CCc2ccccc2)C1C(=O)Nc1ccccc1F (stereo not drawn) [Compound 20] | 0 |

Tested on: barnyardgrass (Echinochloa crus-galli)
Assay: Test A postemergence, barnyardgrass
Type: in vivo
Conditions: 125 g ai/ha, 0 to 100 scale
Procedure, shortened: as §1

| Compound | Plant response rating, Barnyardgrass |
| --- | --- |
| O=C1NCC(CCc2ccccc2)C1C(=O)Nc1ccccc1F (stereo not drawn) [Compound 20] | 0 |

Same assay, conditions: 500 g ai/ha, 0 to 100 scale

| Compound | Plant response rating, Barnyardgrass |
| --- | --- |
| O=C1NCC(CCc2ccccc2)C1C(=O)Nc1ccccc1F (stereo not drawn) [Compound 20] | 0 |

Tested on: foxtail, giant (giant foxtail, Setaria faberii)
Assay: Test A postemergence, foxtail, giant
Type: in vivo
Conditions: 125 g ai/ha, 0 to 100 scale
Procedure, shortened: as §1

| Compound | Plant response rating, Foxtail, Giant |
| --- | --- |
| O=C1NCC(CCc2ccccc2)C1C(=O)Nc1ccccc1F (stereo not drawn) [Compound 20] | 0 |

Same assay, conditions: 500 g ai/ha, 0 to 100 scale

| Compound | Plant response rating, Foxtail, Giant |
| --- | --- |
| O=C1NCC(CCc2ccccc2)C1C(=O)Nc1ccccc1F (stereo not drawn) [Compound 20] | 0 |

Tested on: pigweed (Amaranthus retroflexus)
Assay: Test A preemergence, pigweed
Type: in vivo
Conditions: 125 g ai/ha, 0 to 100 scale
Procedure, shortened: as §1

| Compound | Plant response rating, Pigweed |
| --- | --- |
| O=C1NCC(CCc2ccccc2)C1C(=O)Nc1ccccc1F (stereo not drawn) [Compound 20] | 0 |

Same assay, conditions: 500 g ai/ha, 0 to 100 scale

| Compound | Plant response rating, Pigweed |
| --- | --- |
| O=C1NCC(CCc2ccccc2)C1C(=O)Nc1ccccc1F (stereo not drawn) [Compound 20] | 0 |

Tested on: wheat (Triticum aestivum)
Assay: Test A postemergence, wheat
Type: in vivo
Conditions: 125 g ai/ha, 0 to 100 scale
Procedure, shortened: as §1

| Compound | Plant response rating, Wheat |
| --- | --- |
| O=C1NCC(CCc2ccccc2)C1C(=O)Nc1ccccc1F (stereo not drawn) [Compound 20] | 0 |

Same assay, conditions: 500 g ai/ha, 0 to 100 scale

| Compound | Plant response rating, Wheat |
| --- | --- |
| O=C1NCC(CCc2ccccc2)C1C(=O)Nc1ccccc1F (stereo not drawn) [Compound 20] | 0 |

Tested on: barnyardgrass (Echinochloa crus-galli)
Assay: Test A preemergence, barnyardgrass
Type: in vivo
Conditions: 125 g ai/ha, 0 to 100 scale
Procedure, shortened: as §1

| Compound | Plant response rating, Barnyardgrass |
| --- | --- |
| O=C1NCC(CCc2ccccc2)C1C(=O)Nc1ccccc1F (stereo not drawn) [Compound 20] | 0 |

Same assay, conditions: 500 g ai/ha, 0 to 100 scale

| Compound | Plant response rating, Barnyardgrass |
| --- | --- |
| O=C1NCC(CCc2ccccc2)C1C(=O)Nc1ccccc1F (stereo not drawn) [Compound 20] | 0 |

Reference: patent publication US10906873B2, “Substituted cyclic amides as herbicides” (FMC Corporation, priority 2015, dated 2021)
